According to paper doi:10.1101/504357v1 (biorxiv, 2018):
Converted amounts (≈) assume the structure as drawn.

Legend:
[1] = test system: S. pyogenes; assay: microbe, parasite or virus in culture; set-up: species or system Streptococcus pyogenes ATCC 19615; details: Streptococcus pyogenes, read-out: MIC (ug/mL)
[2] = target: T1, HuDHFR (Homo sapiens, UniProt P00374); assay: DHFR inhibition assay; assay type: biochemical
T1 sequence (P00374 1-187): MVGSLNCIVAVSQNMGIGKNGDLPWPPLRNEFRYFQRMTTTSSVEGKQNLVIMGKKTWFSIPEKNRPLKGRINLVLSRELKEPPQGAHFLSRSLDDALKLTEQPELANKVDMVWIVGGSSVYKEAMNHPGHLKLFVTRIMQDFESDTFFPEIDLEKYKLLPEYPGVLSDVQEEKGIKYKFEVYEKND

An MIC [1] of 0.078 µg/mL (≈ 0.194 µM) was found for CCc1nc(N)nc(N)c1C#CCc1cc(-c2ccc(C(=O)O)cc2)ccc1OC [compound 7] in this work.

An MIC [1] of at most 0.039 µg/mL was found for CCc1nc(N)nc(N)c1C#CC(C)c1cc(-c2ccncc2)cc2c1OCO2 (stereo not drawn) [compound 31] in this work.

An MIC [1] of at most 0.039 µg/mL was found for CCc1nc(N)nc(N)c1C#CC(C)c1cc2c(c(-c3ccncc3)c1)OCCO2 (stereo not drawn) [compound 20] in this work.

An IC50 [2] of 74 ± 7 nM and an MIC [1] of at most 0.039 µg/mL were found for CCc1nc(N)nc(N)c1C#C[C@H](C)c1ccc(OC)c(-c2ccncc2)c1 [compound 24] in this work.

An IC50 [2] of 234 ± 16 nM and an MIC [1] of at most 0.039 µg/mL were found for CCc1nc(N)nc(N)c1C#CC(C)c1cc(-c2ccncc2)cc(F)c1OC (stereo not drawn) [compound 17] in this work.

An MIC [1] of at most 0.039 µg/mL was found for CCc1nc(N)nc(N)c1C#CC(C)c1cccc(-c2cc(C)nc(C)c2)c1 (stereo not drawn) [compound 18] in this work.

An IC50 [2] of 210 ± 18 nM and an MIC [1] of at most 0.039 µg/mL were found for CCc1nc(N)nc(N)c1C#C[C@H](C)c1cc(-c2cc(C)nc(C)c2)ccc1Cl [compound 9] in this work.

An IC50 [2] of 68 ± 7 nM and an MIC [1] of at most 0.039 µg/mL were found for CCc1nc(N)nc(N)c1C#C[C@@H](C)c1ccc(OC)c(-c2ccncc2)c1 [compound 23] in this work.

An IC50 [2] of 167 ± 9 nM and an MIC [1] of 0.156 µg/mL (≈ 0.342 µM) were found for CCc1nc(N)nc(N)c1C#C[C@@H](C)c1cc(-c2cc(C)nc(C)c2)ccc1OC(F)(F)F [compound 13] in this work.

An MIC [1] of 0.312 µg/mL (≈ 0.831 µM) was found for CCc1nc(N)nc(N)c1C#CC(C)c1cc(O)c(O)c(-c2ccncc2)c1 (stereo not drawn) [compound 32] in this work.

An MIC [1] of 0.312 µg/mL (≈ 0.685 µM) was found for CCc1nc(N)nc(N)c1C#C[C@H](C)c1cc(-c2cc(C)nc(C)c2)ccc1OC(F)(F)F [compound 12] in this work.

An MIC [1] of at most 0.039 µg/mL was found for CCc1nc(N)nc(N)c1C#C[C@@H](C)c1cc(OC)cc(-c2ccncc2)c1 [compound 27] in this work.

An MIC [1] of 0.312 µg/mL (≈ 0.685 µM) was found for CCc1nc(N)nc(N)c1C#CC(C)c1cc(-c2cc(C)nc(C)c2)ccc1OC(F)(F)F (stereo not drawn) [compound 15] in this work.

An MIC [1] of at most 0.039 µg/mL was found for CCc1nc(N)nc(N)c1C#CC(C)c1cc2c(c(-c3cc(C)nc(C)c3)c1)OCCO2 (stereo not drawn) [compound 19] in this work.

An IC50 [2] of 191 ± 12 nM and an MIC [1] of at most 0.039 µg/mL were found for CCc1nc(N)nc(N)c1C#C[C@@H](C)c1cc2c(c(-c3ccncc3)c1)OCO2 [compound 21] in this work.

An MIC [1] of 0.078 µg/mL (≈ 0.187 µM) was found for CCc1nc(N)nc(N)c1C#C[C@@H](C)c1cc(-c2ccc(C(=O)O)cc2)ccc1OC [compound 5] in this work.

An MIC [1] of at most 0.039 µg/mL was found for CCc1nc(N)nc(N)c1C#C[C@@H](C)c1cc(-c2ccncc2)ccc1OC [compound 26] in this work.

An MIC [1] of at most 0.039 µg/mL was found for CCc1nc(N)nc(N)c1C#C[C@H](C)c1cc(-c2ccncc2)ccc1OC [compound 25] in this work.

An IC50 [2] of 207 ± 13 nM and an MIC [1] of 0.625 µg/mL (≈ 1.54 µM) were found for CCc1nc(N)nc(N)c1C#C[C@@H](C)c1cc(-c2cc(C)nc(C)c2)ccc1Cl [compound 11] in this work.

An MIC [1] of 0.625 µg/mL (≈ 1.55 µM) was found for CCc1nc(N)nc(N)c1C#CCc1cc(-c2ccccc2C(=O)O)ccc1OC [compound 6] in this work.

An MIC [1] of at most 0.039 µg/mL was found for CCc1nc(N)nc(N)c1C#C[C@@H](C)c1cc(OC)cc(-c2ccc(C(=O)O)cc2)c1 [compound 2] in this work.

An MIC [1] of at most 0.039 µg/mL was found for CCc1nc(N)nc(N)c1C#CCc1cc(OC)cc(-c2ccc(C(=O)O)cc2)c1 [compound 1] in this work.

An MIC [1] of 0.312 µg/mL (≈ 0.769 µM) was found for CCc1nc(N)nc(N)c1C#CC(C)c1cc(-c2cc(C)nc(C)c2)ccc1Cl (racemic) [compound 10] in this work.

An MIC [1] of 0.625 µg/mL (≈ 1.42 µM) was found for CCc1nc(N)nc(N)c1C#CCc1cc(-c2cc(C)nc(C)c2)ccc1OC(F)(F)F [compound 14] in this work.

An IC50 [2] of 85 ± 10 nM and an MIC [1] of at most 0.039 µg/mL were found for CCc1nc(N)nc(N)c1C#C[C@H](C)c1cc2c(c(-c3ccncc3)c1)OCO2 [compound 22] in this work.

An MIC [1] of 0.078 µg/mL (≈ 0.187 µM) was found for CCc1nc(N)nc(N)c1C#C[C@H](C)c1cc(-c2ccc(C(=O)O)cc2)ccc1OC [compound 4] in this work.

An MIC [1] of at most 0.039 µg/mL was found for CCc1nc(N)nc(N)c1C#C[C@H](C)c1cc(OC)c(OC)c(-c2ccncc2)c1 [compound 30] in this work.

An MIC [1] of at most 0.039 µg/mL was found for CCc1nc(N)nc(N)c1C#C[C@H](C)c1cc(OC)cc(-c2ccncc2)c1 [compound 28] in this work.

An MIC [1] of at most 0.039 µg/mL was found for CCc1nc(N)nc(N)c1C#CC(C)c1cc(OC)c(OC)c(-c2ccncc2)c1 (stereo not drawn) [compound 29] in this work.

An MIC [1] of at most 0.039 µg/mL was found for CCc1nc(N)nc(N)c1C#CC(C)c1cc(F)cc(-c2cc(C)nc(C)c2)c1 (stereo not drawn) [compound 16] in this work.

An MIC [1] of at most 0.039 µg/mL was found for CCc1nc(N)nc(N)c1C#C[C@H](C)c1cc(OC)cc(-c2ccc(C(=O)O)cc2)c1 [compound 3] in this work.
